# System: L. donovani intracellular amastigotes in B10R cells
# Test: UCSD L. donovani infection assay (Assay Conditions D)
# Type: cell-based
# Settings: B10R cells
# Description: (§1) Assay Conditions D: B10R cells (CVCL_0155) were seeded at 300 cells/well, and L. donovani WT promastigotes in stationary phase (7th day after passage) were added at 6,000 parasites/well (ratio of 20 parasites/cell). Both cells and parasites were seeded in DMEM High-Glucose medium (Gibco, cat. no. 11995065) containing 5% Fetal Bovine Serum (Sigma-Aldrich, cat. no. F2442) and 1% Penicillin-Streptomycin (Gibco, cat. no. 15140122). Cells and parasites were incubated in the presence of the compounds for 72 h at 37° C. and 5% C02. Plates were then fixed with 4% formaldehyde solution for at least 1 h, then washed with 1×PBS and stained with 5 μg/mL DAPI. Plates were read using an ImageXpress microscope (Molecular Devices) and analyzed by MetaXpress software (Molecular Devices) using a custom module optimized for this assay. […] Compounds were tested in a 10-point 2-fold serial dilution in 3 technical replicates, and 2 biological replicates. After 72 h, plates were fixed and stained with DAPI as described above. Images were acquired on an ImageXpress microscope, and analyzed using the MetaXpress custom module.
# as §1, with “Compounds were obtained as 0.2 μmoles of dried film for primary single point screening. Each compound was diluted in DMSO to 10 μM final testing concentration. These compounds were tested in 2 biological replicates. The compounds were pre-spotted onto 384-well assay plates in single concentration.” for “Assay Conditions D:”, “CO2.” for “C02.”, “module. The DRCs were plotted, half-effective concentration (EC50) and half-cytotoxic concentration (CC50) were calculated using GraphPad Prism Software, version 6.05 (GraphPad Software, San Diego, CA).” for “module.”
SMILES,"L. donovani amastigotes EC75 (μM, B10R cells) [µM]",L. donovani amastigotes EC75 (B10R cells) (footnote d) [µM]
C#CCCCCOc1ccc(N2C(=O)c3[nH]nc(CC(C)C)c3C2c2ccc(F)cc2)cn1 (stereo not shown) [BUCMD00739],>10,–
COc1ncc(N2C(=O)c3[nH]nc(CC(C)C)c3C2c2ccccc2C)cc1F (stereo not shown) [BUCMD00733],1.0,–
COc1cc(N2C(=O)c3[nH]nc(CC(C)C)c3C2c2c(C)nn(C)c2Cl)ccc1F (stereo not shown) [BUCMD00180],>10,–
Cc1ccccc1C1c2c(CC(C)C)n[nH]c2C(=O)N1c1ccn(C)n1 (stereo not shown) [BUCMD00657],>10,–
CC(C)Cc1n[nH]c2c1C(c1ccc(F)cc1Cl)N(c1ccn(C)n1)C2=O (stereo not shown) [BUCMD00654],>10,–
COc1ccc(OC)c(N2C(=O)c3[nH]nc(CC(C)C)c3C2c2ccc(OC)nc2)c1 (stereo not shown) [BUCMD00177],>10,–
CCn1cc(N2C(=O)c3[nH]nc(CC(C)C)c3C2c2ccc(Cl)cc2F)cn1 (stereo not shown) [BUCMD00666],>10,–
CC(C)Cc1n[nH]c2c1C(c1ccccc1Cl)N(c1cnn(C(C)C)c1)C2=O (stereo not shown) [BUCMD00676],>10,–
Cc1cccnc1N1C(=O)c2[nH]nc(CC(C)C)c2C1c1ccc(F)cc1 (stereo not shown) [BUCMD00166],>10,–
COc1ccc(OC)c(C2c3c(CC(C)C)n[nH]c3C(=O)N2c2ccc(C)cn2)c1 (stereo not shown) [BUCMD00198],>10,–
CCn1cc(N2C(=O)c3[nH]nc(CC(C)C)c3C2c2ccc(F)cc2Br)cn1 (stereo not shown) [BUCMD00669],–,0.7
COc1ncccc1C1c2c(CC(C)C)n[nH]c2C(=O)N1c1ncccc1C (stereo not shown) [BUCMD00189],>10,–
COc1ccc(OC)c(C2c3c(CC(C)C)n[nH]c3C(=O)N2c2cccc(C)n2)c1 (stereo not shown) [BUCMD00199],>10,–
CC(C)Cc1n[nH]c2c1C(c1sccc1Br)N(c1ccn(C)n1)C2=O (stereo not shown) [BUCMD00662],>10,–
CC(C)Cc1n[nH]c2c1C(c1ccccc1Cl)N(c1ccc(N3CCN(C)CC3)nc1)C2=O (stereo not shown) [BUCMD00720],5.1,–
CCn1cc(N2C(=O)c3[nH]nc(CC(C)C)c3C2c2ccccc2C)cn1 (stereo not shown) [BUCMD00667],>10,–
CC(C)Cc1n[nH]c2c1C(c1ccccc1C(F)(F)F)N(c1cnn(C(C)C)c1)C2=O (stereo not shown) [BUCMD00679],10.4,–
Cc1ccccc1C1c2c(CC(C)C)n[nH]c2C(=O)N1c1cnn(C(C)C)c1 (stereo not shown) [BUCMD00677],>10,–
COc1cc(N2C(=O)c3[nH]nc(CC(C)C)c3C2c2ccc(F)cc2)ccn1 (stereo not shown) [BUCMD00163],>10,–
Cc1cc(F)ccc1C1c2c(CC(C)C)n[nH]c2C(=O)N1c1ccc(C(=O)N2CCCC2)cc1 (stereo not shown) [BUCMD00726],>10,–
CC(C)Cc1n[nH]c2c1C(c1ccc(F)cc1F)N(c1ccn(C)n1)C2=O (stereo not shown) [BUCMD00659],>10,–
COc1cc(N2C(=O)c3[nH]nc(CC(C)C)c3C2c2ccc(F)cc2F)ccn1 (stereo not shown) [BUCMD00188],>10,–
COc1ccc(OC)c(C2c3c(CC(C)C)n[nH]c3C(=O)N2c2cc(C)ccn2)c1 (stereo not shown) [BUCMD00197],>10,–
CCn1cc(N2C(=O)c3[nH]nc(CC(C)C)c3C2c2ccc(F)cc2Cl)cn1 (stereo not shown) [BUCMD00665],>10,–
COc1ccc(OC)c(C2c3c(CC(C)C)n[nH]c3C(=O)N2c2cncc(Br)c2)c1 (stereo not shown) [BUCMD00196],>10,–

# From patent publication US20230381142A1, “ANTILEISHMANIAL COMPOUNDS, COMPOSITIONS AND USE THEREOF” (TRUSTEES OF BOSTON UNIVERSITY, priority 2022, published 2023)
